Measurements published in patent US12589090B2, “Compounds and methods for the treatment of degenerative disorders” (Aquilus Pharmaceuticals, Inc., priority 2019, dated 2026).

Key:
[1] = Dissociation constant; type: physicochemical
[2] = Solubility testing (Example 27); type: physicochemical; details: for solubility in water: as the free acid
[3] = In-vivo oral rat pharmacokinetics (Example 15); details: male Sprague-Dawley rats, dose level 10 mg/kg, 0.5% MC, plasma, mean
Protocol: Understanding the pharmacokinetics in species typically employed in preclinical animal testing is an essential component of drug discovery. […] Procedure: Six (6) male Sprague-Dawley rats were used. Fasting was conducted at least 16 hours prior to dose administration. Food was returned at approximately 4 hours post dose. The animals were placed into 2 groups of 3 animals per group. The oral (PO) formulation for Groups 1 & 2 were prepared on the day of dosing at a target concentration of 0.5 mg/mL in 0.5% Methylcellulose (400 cps) to produce a white, homogeneous suspension. Dosing was performed as outlined in Table 1:
Whole blood samples (0.250 mL; K2EDTA anticoagulant) were collected from each animal through a jugular vein catheter. Whole blood samples were collected from all animals pre-dose, and at 0.25, 0.5, 1, 2, 4, 8, 16, and 24 hours after dose administration. All blood samples were immediately placed on ice until processing. Whole blood samples were centrifuged at 2200×g for 10 minutes in a refrigerated centrifuge (5±3° C.) to isolate plasma. The plasma samples were transferred to individual polypropylene vials and immediately placed on dry ice before storage at nominally −20±5° C. The plasma samples sometime later were then thawed and extracted and analyzed by high pressure liquid chromatography (HPLC) coupled to Mass Spectrometry (MS) (Table 2). Pharmacokinetic parameters (Table 3) were estimated using WinNonlin® pharmacokinetic software (Version No. 5.2.1) using a non-compartmental approach consistent with the PO route of administration.

[4] = system: STZ-induced diabetic rats; assay: STZ-induced diabetic rat model, tactile allodynia (Example 18); type: in vivo, Wistar rats
Protocol: (§1) Male Wistar rats (300-350 g) at the beginning of the experiment were used. A single dose (65 mg/kg, i.p.) of Streptozotocin (STZ) with 230 mg/kg (i.p) of nicotinamide were used for induction of diabetes in rats. The STZ was freshly dissolved in citrate buffer. Age matched control rats received the equal volume of the citrate buffer only. Forty days after injection of either STZ or citrate buffer, the rats were tested for diabetes mellitus (DM) using a drop of blood from the tail vein. The estimation of blood glucose level was made using OneTouch Select® Glucometer (LifeScan, Inc., USA). Rats with plasma glucose level>8 mmol/1 (145 mg/dl) were considered as diabetic. Following the diagnosis of DM, age matched healthy control and STZ-induced diabetic rats were divided randomly into four groups each containing six rats. Glucose level was estimated on weekly basis during the experiment.
(§2) Experimental design and drug treatment: Six weeks after the diabetic induction age matched healthy control and STZ-induced diabetic rats were divided randomly into four groups each containing six rats: naïve rats, vehicle (0.5% methylcellulose) treated DM group, 70 mg/kg (in 0.5% methylcellulose) Compound 5-treated DM group, 140 mg/kg (in 0.5% methylcellulose) Compound 5-treated DM group.
Behavioral testing: Tactile allodynia. […] The paw withdrawal thresholds were determined. […] The psychophysical 50% threshold was then calculated.
Data analysis: The results are presented as mean±SEM. In chronic pain experiment, four rats were excluded from the statistical analysis because the paw withdrawal threshold was >8 g (criterion taken from the study. Paw withdrawal threshold data were subjected to analysis of variance (ANOVA, General Linear Model procedure) with Dunnett's post hoc test was applied for between-group pair wise comparisons. Effects of Compound 5 on immunohistochemistry parameters were analyzed by one-way ANOVA (factors: Compound 5 treatment) followed by the Dunnett's test. Data were analyzed using SAS-STAT (SAS v.9.4, SAS Institute Inc., Cary, NC, USA). Data were considered significant at P<0.05.

[5] = system: STZ-induced diabetic rats; assay: STZ-induced diabetic rat model, blood glucose concentration and HbA1c (Example 18); type: in vivo, Wistar rats
Protocol: as §1, §2

[6] = system: caspase-3; assay: Caspase-3 immunohistochemistry (optical density) in spinal cord and sciatic nerve of STZ diabetic rats (Example 18); type: in vivo, Wistar rats
Protocol: Sections from the biopsy specimens (brain and spinal tissue) were formalin-fixed and paraffin-embedded. For IHC examination, slides from the spinal cord and sciatic nervous were evaluated for caspase-3 (cas-3). Serial 3-5-μm thick sections were cut from paraffin embedded tissue blocks. For subsequent IHC staining glass slices were exposed to hot unmasking fluidized citrate buffer pH 6.0 for 15-18 min. After cooling, the glass with the slice was transferred into phosphate-buffered saline (PBS) pH 7.4. The sections were deparaffinized and then rehydrated in alcohol to tris-buffered saline. Endogenous peroxidase activity was blocked using 3% hydrogen peroxide followed by a protein block with 5% goat serum.
Affinity purified monoclonal IgG1, Caspase-3 p11 antibodies (sc-271759; Santa Cruz BioTechnology Inc., Dallas, TX, USA) were used as the primary antibody and applied at a 1:50 dilution 100 μl/glass for 30 min at room temperature. […]
Immunohistochemistry: Sections from the biopsy specimens were formalin-fixed and paraffin-embedded. For immunohistochemistry (IHC) examination, slides from the spinal cord and sciatic nervous were evaluated for caspase-3. […] (4 per group) and three sections from each animal were used for quantitative immunohistochemistry (12 measuring per each group). […]

Structure (SMILES) | dissociation constant [1] | solubility in DMSO, acetone and methanol [2] | solubility in water [2] | AUC(0-inf) [3] | AUC(0-t) [3] | Cmax [3] | half-life [3] | tactile allodynia (paw withdrawal threshold), post hoc analysis ([4]; 70 mg/kg, 14 days treatment, p<0.05 vs. vehicle) | tactile allodynia (paw withdrawal threshold) ([4]; 140 mg/kg, 14 days treatment) | threshold of the nociceptive response (tactile allodynia) ([4]; after 14 days of treatment) | glycosylated hemoglobin (HbA1c) level ([5]; STZ diabetic rats treated during 2 weeks, vs. untreated DM rats) | blood glucose concentration ([5]; STZ diabetic rats, 70 or 140 mg/kg) | expression of caspase-3 in sciatic nerve ([6]; both doses (70 and 140 mg/kg), vs. vehicle-treated DM group) | caspase-3 in spinal cord ([6]; vs. vehicle group)
[2H]c1[nH]c2c([2H])c([2H])c([2H])c([2H])c2c1C[C@@H](NS(=O)(=O)c1ccc(C#Cc2ccc(C)cc2)s1)C(=O)O [Compound 82] | around 3.4 | soluble | poorly soluble |  |  |  |  |  |  |  |  |  |  | 
Cc1ccc(C#Cc2ccc(S(=O)(=O)N[C@H](Cc3c[nH]c4ccccc34)C(=O)O)s2)cc1 [Compound 5, (R)-3-(1H-Indol-3-yl)-2-(5-p-tolylethynyl-thiophene-2-sulfonylamino)-propionic acid] | around 3.4 | soluble | poorly soluble | 5150 ng·h/mL | 5120 ng·h/mL | 1580 ng/mL | 1.28 h | confirmed the effect | tendency to the analgesic effect | significantly decreased | not significantly changed | no significant effects | significant reduction | statistically significant change
